Source: US4520022A, “Substituted vinyl cephalosporins” (priority 1983, dated 1985)
≈ marks a conversion by molar mass, not a printed value. Like-named read-outs stand apart in the source and are kept apart here.

How the values were obtained:
S. aureus BX-1633 = test: Protective dose PD50, mice infected with lethal inoculum, oral treatment, S. aureus BX-1633; assay type: in vivo; conditions: Staphylococcus aureus, BX1633, 120 h
S. pyogenes A20201 = test: Protective dose PD50, mice infected with lethal inoculum, oral treatment, S. pyogenes A20201; assay type: in vivo; conditions: Streptococcus pyogenes, 120 h
H. influenza A9729 = test: Protective dose PD50, mice infected with lethal inoculum, oral treatment, H. influenza A9729; assay type: in vivo; conditions: Mus musculus, 120 h
Excerpt: The structure activity correlations drawn from the foregoing in vitro studies are born out by the results of in vivo studies in mice. Table 4 is a tabulation of the protective doses for mice infected with a lethal inoculum of a bacteria. Two different bacteria were employed in the studies, one a Gram+ organism and the other a Gram- organism. The protective dose (PD50) is that dose which when administered to a group of infected mice results in 50% survival after five days. Normally untreated infected mice die within three days following injection of the lethal inoculum.
Protective Dose PD50 for Mice Infected with Lethal Inoculum

P. mirabilis A9554 = test: Protective dose PD50, mice infected with lethal inoculum, oral treatment, P. mirabilis A9554; assay type: in vivo
S. pyogenes = test: In vitro activity against Streptococci (MIC), S. pyogenes; assay type: cell-based; conditions: Streptococcus pyogenes, Compound 9 lot 2
S. pneumoniae = test: In vitro activity against Streptococci (MIC), S. pneumoniae; assay type: cell-based; conditions: Streptococcus pneumoniae, Compound 9 lot 2
N. gonorrheae = test: In vitro activity against Neisseria (MIC), N. gonorrheae; assay type: cell-based
N. meningitidis = test: In vitro activity against Neisseria (MIC), N. meningitidis; assay type: cell-based
H. influenzae = test: In vitro activity against Haemophilis (MIC), H. influenzae; assay type: cell-based; conditions: Haemophilus influenzae, Compound 9 lot 2
[1] = mouse, in vivo
in vivo = conditions: mouse; for half-life: T1/2
[2] = test system: Gp Ib: S. aureus 193, BX-1633-2 A9606, A15092, Russell, A9602; conditions: Staphylococcus aureus
[3] = test system: Gp Ia: S. aureus Smith A9537, A9497, Terajima, A9534, A9601; conditions: Staphylococcus aureus
S. aureus Smith = test: Protective dose, mice infected with lethal inoculum, oral treatment, S. aureus Smith; assay type: in vivo; conditions: Staphylococcus aureus, po, 120 h, oral, read-out: Protective dose (PD50), S. aureus Smith
E. coli Juhl = test: Protective dose, mice infected with lethal inoculum, oral treatment, E. coli Juhl; assay type: in vivo
bacteria = test: Antibacterial activity, general statements; conditions: in words
[4] = test system: Gp Ia, Gp Ib, Gn Ia organisms of Table 2; test: Test medium comparison, agar dilution MIC, Mueller-Hinton agar versus nutrient agar
[5] = read-out: Minimum Inhibitory Concentration Gp Ib, Mueller-Hinton agar, run 1, average of five organisms
[6] = read-out: Minimum Inhibitory Concentration Gp Ib, Mueller-Hinton agar, run 2, average of five organisms
[7] = read-out: Minimum Inhibitory Concentration Gp Ia, Mueller-Hinton agar, run 1, average of five organisms
[8] = read-out: Minimum Inhibitory Concentration Gp Ia, Mueller-Hinton agar, run 2, average of five organisms

For CC1=C(C(=O)O)N2C(=O)[C@@H](NC(=O)[C@H](N)c3ccc(O)cc3)[C@H]2SC1 [Cefadroxil], the ED50 (S. aureus BX-1633) was 7.2 mg/kg, the ED50 (S. pyogenes A20201) was 0.25 mg/kg and the ED50 (H. influenza A9729) was 25 mg/kg. The “Protective Dose PD50” value (P. mirabilis A9554) was 14, the MIC (S. pyogenes; S. pyogenes A9604, read-out: MIC) was 0.8 µg/mL (≈ 2.2 µM) and the MIC (S. pyogenes; S. pyogenes A15040, read-out: MIC) was 0.8 µg/mL (≈ 2.2 µM). It also gave an MIC (S. pyogenes; S. pyogenes A20065, read-out: MIC) of 0.8 µg/mL (≈ 2.2 µM), an MIC (S. pyogenes; S. pyogenes A20201, read-out: MIC) of 0.4 µg/mL (≈ 1.1 µM) and an MIC (S. pyogenes; S. pyogenes Dick, read-out: MIC) of 0.8 µg/mL (≈ 2.2 µM). It also gave an MIC (S. pyogenes; S. pyogenes S-23, Dick, A9604, A20065, A15040, read-out: MIC, Geometric Mean) of 0.8 µg/mL (≈ 2.2 µM), an MIC (S. pyogenes; S. pyogenes S-23, read-out: MIC) of 0.8 µg/mL (≈ 2.2 µM) and an MIC (S. pneumoniae; S. pneumoniae A9585, read-out: MIC) of 1.6 µg/mL (≈ 4.4 µM). It also gave an MIC (S. pneumoniae; S. pneumoniae A15069, read-out: MIC) of 1.6 µg/mL (≈ 4.4 µM), an MIC (S. pneumoniae; S. pneumoniae A20759, read-out: MIC) of 3.1 µg/mL (≈ 8.53 µM) and an MIC (S. pneumoniae; S. pneumoniae Type I, read-out: MIC) of 1.6 µg/mL (≈ 4.4 µM). For the same compound, the MIC (S. pneumoniae; S. pneumoniae Type II, I, III, A9585, A15069, read-out: MIC, Geometric Mean) was 1.6 µg/mL (≈ 4.4 µM), the MIC (S. pneumoniae; S. pneumoniae Type II, read-out: MIC) was 1.6 µg/mL (≈ 4.4 µM) and the MIC (S. pneumoniae; S. pneumoniae Type III, read-out: MIC) was 1.6 µg/mL (≈ 4.4 µM). It also gave an MIC (N. gonorrheae; N. gonorrheae A20142, Compound 9 lot 2) of 6.3 µg/mL (≈ 17.3 µM), an MIC (N. gonorrheae; N. gonorrheae A20143, Compound 9 lot 2) of 6.3 µg/mL (≈ 17.3 µM) and an MIC (N. gonorrheae; N. gonorrheae A20154, Compound 9 lot 2) of 6.3 µg/mL (≈ 17.3 µM). The MIC (N. gonorrheae; N. gonorrheae A20155, Compound 9 lot 2) was 6.3 µg/mL (≈ 17.3 µM), the MIC (N. gonorrheae; read-out: MIC) was 6.3 µg/mL (≈ 17.3 µM) and the MIC (N. gonorrheae; read-out: MIC, Geometric Mean) was 6.3 µg/mL (≈ 17.3 µM). For the same compound, the MIC (N. meningitidis; N. meningitidis A21487, Compound 9 lot 2) was 6.3 µg/mL (≈ 17.3 µM), the MIC (N. meningitidis; N. meningitidis A21496, Compound 9 lot 2) was 6.3 µg/mL (≈ 17.3 µM) and the MIC (N. meningitidis; N. meningitidis A21497, Compound 9 lot 2) was 6.3 µg/mL (≈ 17.3 µM). For the same compound, the MIC (N. meningitidis; Neisseria meningitidis, read-out: MIC) was 6.3 µg/mL (≈ 17.3 µM), the MIC (N. meningitidis; Neisseria meningitidis, read-out: MIC, Geometric Mean) was 6.3 µg/mL (≈ 17.3 µM) and the MIC (H. influenzae; H. influenzae A9729, read-out: MIC) was 6.3 µg/mL (≈ 17.3 µM). It also gave an MIC (H. influenzae; H. influenzae A9833, read-out: MIC) of 6.3 µg/mL (≈ 17.3 µM), an MIC (H. influenzae; H. influenzae A20177, read-out: MIC) of 6.3 µg/mL (≈ 17.3 µM) and an MIC (H. influenzae; H. influenzae A20193, read-out: MIC) of 6.3 µg/mL (≈ 17.3 µM). The MIC (H. influenzae; H. influenzae A21523, read-out: MIC) was 6.3 µg/mL (≈ 17.3 µM), the MIC (H. influenzae; H. influenzae A22157, read-out: MIC) was 6.3 µg/mL (≈ 17.3 µM) and the MIC (H. influenzae; H. influenzae A22481, read-out: MIC) was 6.3 µg/mL (≈ 17.3 µM). It also gave an MIC (H. influenzae; H. influenzae A22482, read-out: MIC) of 6.3 µg/mL (≈ 17.3 µM), an MIC (H. influenzae; H. influenzae A22483, read-out: MIC) of 6.3 µg/mL (≈ 17.3 µM) and an MIC (H. influenzae; H. influenzae A22491, read-out: MIC) of 6.3 µg/mL (≈ 17.3 µM). The MIC (H. influenzae; H. influenzae, seven strains above, read-out: MIC, Geometric Mean) was 6.3 µg/mL (≈ 17.3 µM), the T1/2 ([1]; im, 20 mg/kg) was 0.37 h and the T1/2 ([1]; po, 20 mg/kg) was 1.6 h. The T1/2 ([1]; po, 100 mg/kg) was 1.5 h, the AUC (in vivo; im, 20 mg/kg, AUC*) was 14000 ng·h/mL and the Cmax (in vivo; im, 20 mg/kg) was 21000 ng/mL. The half-life (in vivo; im, 20 mg/kg) was 0.33 h, the AUC (in vivo; po, 20 mg/kg, AUC*) was 18000 ng·h/mL and the Cmax (in vivo; po, 20 mg/kg) was 12000 ng/mL. For the same compound, the half-life (in vivo; po, 20 mg/kg) was 1.2 h, the AUC (in vivo; po, 100 mg/kg, AUC) was 103000 ng·h/mL and the Cmax (in vivo; po, 100 mg/kg) was 56000 ng/mL. For the same compound, the half-life (in vivo; po, 100 mg/kg) was 2.3 h, the MIC [2, 5] was 3.6 µg/mL (≈ 9.91 µM) and the MIC [2, 6] was 4.1 µg/mL (≈ 11.3 µM). The MIC [3, 7] was 1.2 µg/mL (≈ 3.3 µM) and the MIC [3, 8] was 1.1 µg/mL (≈ 3.03 µM).

With C/C=C\C1=C(C(=O)O)N2C(=O)[C@@H](NC(=O)[C@H](N)c3ccccc3)[C@H]2SC1 [Compound 24, 7β-(D(-)-2-Amino-2-phenylacetamido)-3-[(Z)-1-propen-1-yl]-3-cephem-4-carboxylic acid] the ED50 (S. aureus Smith; 50% survival for 5 days, groups of 5 mice) was 0.18 mg/kg, the ED50 (E. coli Juhl; Escherichia coli, po, 120 h, oral, 50% survival for 5 days, groups of 5 mice, read-out: Protective dose (PD50), E. coli Juhl) was 1.5 mg/kg and the “activity against the Gram- infection” value (E. coli Juhl; in words) was “more active against the Gram- infection”. The T1/2 ([1]; im, 20 mg/kg) was 0.58 h, the T1/2 ([1]; po, 20 mg/kg) was 0.69 h and the T1/2 ([1]; po, 100 mg/kg) was 1.1 h. The AUC (in vivo; im, 20 mg/kg, AUC*) was 22000 ng·h/mL, the Cmax (in vivo; im, 20 mg/kg) was 31000 ng/mL and the half-life (in vivo; im, 20 mg/kg) was 0.5 h. It also gave an AUC (in vivo; po, 20 mg/kg, AUC*) of 15000 ng·h/mL, a Cmax (in vivo; po, 20 mg/kg) of 7800 ng/mL and a half-life (in vivo; po, 20 mg/kg) of 1.3 h. The AUC (in vivo; po, 100 mg/kg, AUC) was 84000 ng·h/mL, the Cmax (in vivo; po, 100 mg/kg) was 40000 ng/mL and the half-life (in vivo; po, 100 mg/kg) was 1.1 h. For the same compound, the MIC [2, 5] was 0.92 µg/mL (≈ 2.46 µM), the MIC [2, 6] was 0.92 µg/mL (≈ 2.46 µM) and the MIC [3, 7] was 0.23 µg/mL (≈ 0.616 µM). It also gave an MIC [3, 8] of 0.3 µg/mL (≈ 0.803 µM).

For C/C=C\C1=C(C(=O)O)N2C(=O)[C@@H](NC(=O)[C@H](N)c3ccc(O)c(OC)c3)[C@H]2SC1 [Compound 42, 7β-[D(-)-2-Amino-2-(4-hydroxy-3-methoxyphenyl)acetamido]-3-[(Z)-1-propen-1-yl]-3-cephem-4-carboxylic Acid], the ED50 (S. aureus Smith; separate run of Compound 42 and BMY28100, cephalexin/cefadroxil controls not available) was 0.09 mg/kg, the antibacterial activity (bacteria) was “high in vitro and in vivo activity” and the “difference in MIC between the two media” value [4] was “less than three fold”. The MIC ([2]; read-out: Minimum Inhibitory Concentration Gp Ib, Mueller-Hinton agar, not part of run 1, tested separately, average of five organisms) was 1.2 µg/mL (≈ 2.86 µM), the MIC ([2]; read-out: Minimum inhibitory Concentration Gp Ib, Test Medium Comparison, A: Mueller-Hinton agar, average values) was 1.2 µg/mL (≈ 2.86 µM) and the MIC ([2]; read-out: Minimum inhibitory Concentration Gp Ib, Test Medium Comparison, B: Nutrient agar, average values) was 0.4 µg/mL (≈ 0.954 µM). For the same compound, the MIC ([3]; read-out: Minimum Inhibitory Concentration Gp Ia, Mueller-Hinton agar, not part of run 1, tested separately, average of five organisms) was 0.35 µg/mL (≈ 0.834 µM), the MIC ([3]; read-out: Minimum inhibitory Concentration Gp Ia, Test Medium Comparison, A: Mueller-Hinton agar, average values) was 0.35 µg/mL (≈ 0.834 µM) and the MIC ([3]; read-out: Minimum inhibitory Concentration Gp Ia, Test Medium Comparison, B: Nutrient agar, average values) was 0.23 µg/mL (≈ 0.548 µM).
